In PubChem BioAssay (NCI):
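Grown in 96-well plates, cells were treated for 48 hours with each compound at five concentrations. Insufficient inhibition: endpoint recorded as highest concentration tested. TGI marks complete inhibition of growth.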

Assays:
Test in all cases: growth of human tumour cells (NCI), 48 h
[1] = tested on: A498 renal
[2] = tested on: ACHN renal
[3] = tested on: K-562 leukemia
[4] = tested on: SNB-75 CNS
[5] = tested on: HCC-2998 colon
[6] = tested on: NCI/ADR-RES ovarian
[7] = tested on: OVCAR-3 ovarian
[8] = tested on: CCRF-CEM leukemia
[9] = tested on: MDA-MB-231 breast
[10] = tested on: SF-268 CNS
[11] = tested on: HT29 colon
[12] = tested on: PC-3 prostate
[13] = tested on: UO-31 renal
[14] = tested on: MDA-MB-435
[15] = tested on: HCT-116 colon
[16] = tested on: SK-MEL-2 melanoma
[17] = tested on: NCI-H522 lung
[18] = tested on: RXF 393 renal
[19] = tested on: MOLT-4 leukemia
[20] = tested on: HCT-15 colon
[21] = tested on: HOP-92 NSCLC
[22] = tested on: COLO 205 colon
[23] = tested on: NCI-H460 lung
[24] = tested on: SN12C renal
[25] = tested on: HL-60(TB) leukemia
[26] = tested on: TK-10 renal
[27] = tested on: 786-0 renal
[28] = tested on: DU-145 prostate
[29] = tested on: SK-MEL-5 melanoma
[30] = tested on: RPMI-8226 leukemia
[31] = tested on: OVCAR-5 ovarian
[32] = tested on: SF-295 CNS
[33] = tested on: SK-MEL-28 melanoma
[34] = tested on: T-47D breast
[35] = tested on: MCF7 breast
[36] = tested on: OVCAR-8 ovarian
[37] = tested on: HOP-62 NSCLC
[38] = tested on: EKVX NSCLC
[39] = tested on: HS 578T breast
[40] = tested on: U251 CNS
[41] = tested on: A549 NSCLC
[42] = tested on: CAKI-1 renal
[43] = tested on: MDA-N
[44] = tested on: SR leukemia
[45] = tested on: SNB-19 CNS
[46] = tested on: NCI-H23 lung
[47] = tested on: M14 melanoma
[48] = tested on: SW-620 colon
[49] = tested on: BT-549 breast
[50] = tested on: MALME-3M melanoma
[51] = tested on: OVCAR-4 ovarian
[52] = tested on: UACC-62 melanoma
[53] = tested on: KM12 colon
[54] = tested on: SF-539 CNS
[55] = tested on: LOX IMVI melanoma
[56] = tested on: SK-OV-3 ovarian
[57] = tested on: NCI-H226 lung
[58] = tested on: IGROV1 ovarian
[59] = tested on: KM20L2 colon
[60] = tested on: XF 498 CNS
[61] = tested on: DLD-1 colon
[62] = tested on: UACC-257 melanoma
[63] = tested on: SNB-78 CNS
[64] = tested on: LXFL 529 NSCLC
[65] = tested on: DMS 273 small cell lung
[66] = tested on: DMS 114 small cell lung
[67] = tested on: M19-MEL melanoma
[68] = tested on: HOP-18 NSCLC

SMILES: O=C(NCP(=O)(c1ccccc1)c1ccccc1)OCc1ccccc1
- TGI [1]: > 100 µM
- TGI [2]: > 100 µM
- TGI [3]: > 100 µM
- TGI [4]: > 100 µM
- TGI [5]: > 100 µM
- TGI [6]: > 100 µM
- TGI [7]: > 100 µM
- TGI [8]: > 100 µM
- TGI [9]: > 100 µM
- TGI [10]: > 100 µM
- TGI [11]: > 100 µM
- TGI [12]: > 100 µM
- TGI [13]: > 100 µM
- TGI [14]: > 100 µM
- TGI [15]: > 100 µM
- TGI [16]: > 100 µM
- TGI [17]: > 100 µM
- TGI [18]: > 100 µM
- TGI [19]: > 100 µM
- TGI [20]: > 100 µM
- TGI [21]: > 100 µM
- TGI [22]: > 100 µM
- TGI [23]: > 100 µM
- TGI [24]: > 100 µM
- TGI [25]: > 100 µM
- TGI [26]: > 100 µM
- TGI [27]: > 100 µM
- TGI [28]: > 100 µM
- TGI [29]: > 100 µM
- TGI [30]: > 100 µM
- TGI [31]: > 100 µM
- TGI [32]: > 100 µM
- TGI [33]: > 100 µM
- TGI [34]: > 100 µM
- TGI [35]: > 100 µM
- TGI [36]: > 100 µM
- TGI [37]: > 100 µM
- TGI [38]: > 100 µM
- TGI [39]: > 100 µM
- TGI [40]: > 100 µM
- TGI [41]: > 100 µM
- TGI [42]: > 100 µM
- TGI [43]: > 100 µM
- TGI [44]: > 100 µM
- TGI [45]: > 100 µM
- TGI [46]: > 100 µM
- TGI [47]: > 100 µM
- TGI [48]: > 100 µM
- TGI [49]: > 100 µM
- TGI [50]: > 100 µM
- TGI [51]: > 100 µM
- TGI [52]: > 100 µM
- TGI [53]: > 100 µM
- TGI [54]: > 100 µM
- TGI [55]: > 100 µM
- TGI [56]: > 100 µM
- TGI [57]: > 100 µM
- TGI [58]: > 100 µM

SMILES: COc1c(C)cc2c(c1O)C1C3[C@H]4SC[C@@]5(NCCC6=C5NC5C=CC=CC65)C(=O)OCC(c5c6c(c(C)c(OC(C)=O)c54)OCO6)N3[C@@H](O)C(C2)N1C (stereo partly drawn)
- TGI [4]: < 0.01 µM
- TGI [5]: 0.0109 µM
- TGI [11]: 10.3 µM
- TGI [13]: 0.0112 µM
- TGI [15]: > 100 µM
- TGI [16]: < 0.01 µM
- TGI [18]: < 0.01 µM
- TGI [24]: 1.3 µM
- TGI [26]: 12.8 µM
- TGI [59]: 1.45 µM
- TGI [36]: < 0.01 µM
- TGI [37]: < 0.01 µM
- TGI [38]: 0.24 µM
- TGI [41]: 1.72 µM
- TGI [60]: < 0.01 µM
- TGI [61]: 1.92 µM
- TGI [44]: > 100 µM
- TGI [45]: 3.64 µM
- TGI [62]: < 0.01 µM
- TGI [57]: 0.0859 µM
- TGI [58]: 1.85 µM

SMILES: COc1ccc(C2=C(Cl)c3cc(OC)c(OC)cc3C2Cl)cc1 (stereo not drawn)
- TGI [1]: 28.9 µM
- TGI [2]: 30.6 µM
- TGI [3]: > 53.1 µM
- TGI [4]: 8.46 µM
- TGI [5]: 28.1 µM
- TGI [6]: 33.3 µM
- TGI [7]: 30.9 µM
- TGI [8]: 21 µM
- TGI [9]: 36.6 µM
- TGI [10]: 36 µM
- TGI [11]: 28.8 µM
- TGI [63]: 49.3 µM
- TGI [12]: 26.3 µM
- TGI [13]: 13.4 µM
- TGI [14]: 28.5 µM
- TGI [15]: 31.3 µM
- TGI [16]: 26.3 µM
- TGI [17]: > 27.5 µM
- TGI [18]: 30.4 µM
- TGI [19]: > 59.4 µM
- TGI [20]: 30.6 µM
- TGI [21]: 30.3 µM
- TGI [64]: 28.4 µM
- TGI [22]: 33.4 µM
- TGI [23]: 27.4 µM
- TGI [24]: 30.5 µM
- TGI [25]: 18.1 µM
- TGI [26]: 47.5 µM
- TGI [27]: 28.6 µM
- TGI [28]: 45.4 µM
- TGI [29]: 27.5 µM
- TGI [59]: 30.5 µM
- TGI [30]: > 66.3 µM
- TGI [31]: 29.2 µM
- TGI [65]: 39.5 µM
- TGI [32]: 34.1 µM
- TGI [33]: 31.8 µM
- TGI [34]: 35.1 µM
- TGI [35]: 22.8 µM
- TGI [36]: 50.6 µM
- TGI [37]: 32.2 µM
- TGI [38]: 66.5 µM
- TGI [39]: 76.5 µM
- TGI [66]: 31.8 µM
- TGI [40]: 26.6 µM
- TGI [41]: 36.5 µM
- TGI [42]: 34.6 µM
- TGI [43]: 22.8 µM
- TGI [44]: > 100 µM
- TGI [45]: 39.5 µM
- TGI [46]: > 54.5 µM
- TGI [47]: 37.1 µM
- TGI [48]: 32.9 µM
- TGI [49]: 15.6 µM
- TGI [50]: 46.9 µM
- TGI [51]: 35.4 µM
- TGI [52]: 31.4 µM
- TGI [53]: 26.4 µM
- TGI [54]: 30.8 µM
- TGI [55]: 27.5 µM
- TGI [67]: 35.8 µM
- TGI [56]: 34.3 µM
- TGI [62]: 39.6 µM
- TGI [57]: 66 µM
- TGI [58]: 35.7 µM
- TGI [68]: 53.5 µM

SMILES: N#Cc1c(-c2ccccc2)[nH]c2ccc(Cl)cc2c1=O
- TGI [2]: > 100 µM
- TGI [3]: > 100 µM
- TGI [4]: > 100 µM
- TGI [5]: > 100 µM
- TGI [6]: > 100 µM
- TGI [7]: > 100 µM
- TGI [8]: > 100 µM
- TGI [9]: 89.7 µM
- TGI [10]: > 100 µM
- TGI [11]: > 100 µM
- TGI [12]: > 100 µM
- TGI [13]: 44 µM
- TGI [14]: > 100 µM
- TGI [15]: > 100 µM
- TGI [16]: 94.3 µM
- TGI [17]: > 100 µM
- TGI [18]: 49 µM
- TGI [19]: > 100 µM
- TGI [20]: > 100 µM
- TGI [21]: 51.1 µM
- TGI [22]: > 100 µM
- TGI [23]: > 100 µM
- TGI [24]: > 100 µM
- TGI [25]: > 100 µM
- TGI [26]: 90.6 µM
- TGI [27]: > 100 µM
- TGI [28]: > 100 µM
- TGI [29]: > 100 µM
- TGI [30]: > 100 µM
- TGI [31]: > 100 µM
- TGI [32]: 66.2 µM
- TGI [33]: > 100 µM
- TGI [34]: > 100 µM
- TGI [35]: > 100 µM
- TGI [36]: > 100 µM
- TGI [37]: 74 µM
- TGI [38]: > 100 µM
- TGI [39]: > 100 µM
- TGI [40]: 75.9 µM
- TGI [41]: > 100 µM
- TGI [42]: > 100 µM
- TGI [43]: > 100 µM
- TGI [44]: > 100 µM
- TGI [45]: 59.9 µM
- TGI [46]: > 100 µM
- TGI [47]: > 100 µM
- TGI [48]: > 100 µM
- TGI [49]: 80.9 µM
- TGI [50]: > 100 µM
- TGI [51]: > 100 µM
- TGI [52]: > 100 µM
- TGI [53]: > 100 µM
- TGI [54]: > 100 µM
- TGI [55]: > 100 µM
- TGI [56]: > 100 µM
- TGI [62]: > 100 µM
- TGI [57]: > 100 µM
- TGI [58]: > 100 µM
